# Paper PMC7827406, “Structure–Activity Relationship (SAR) Study of Spautin-1 to Entail the Discovery of Novel NEK4 Inhibitors” (International Journal of Molecular Sciences, 2021)
# Read-outs that look alike come from different tables or passages of the source.
# What was measured:
# Assay in all cases: biochemical
# Design in all cases: Eurofins KinaseProfiler full panel at Km ATP, residual kinase activity (%) relative to DMSO
# CRIK(h) = molecular target: T1, CRIK(h) (Homo sapiens, UniProt O14578)
# T1 construct: gene CIT
# Outline: (§1)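 Compounds screened at 10 µM in radiometric kinase activity assays at Km ATP, reported as remaining kinase activity (%). A KINOMEscan competition-binding screen at 10 µM measured DNA-tagged kinase retained on immobilized active-site ligand by qPCR.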
# cKit(V654A)(h) = molecular target: T2, cKit(V654A)(h) (Homo sapiens, UniProt P10721, V654A)
# T2 construct: gene KIT
# Outline: as §1
# DCAMKL1(h) = molecular target: T3, DCAMKL1(h) (Homo sapiens, UniProt O15075)
# T3 construct: gene DCLK1
# T3 sequence (O15075 1-740): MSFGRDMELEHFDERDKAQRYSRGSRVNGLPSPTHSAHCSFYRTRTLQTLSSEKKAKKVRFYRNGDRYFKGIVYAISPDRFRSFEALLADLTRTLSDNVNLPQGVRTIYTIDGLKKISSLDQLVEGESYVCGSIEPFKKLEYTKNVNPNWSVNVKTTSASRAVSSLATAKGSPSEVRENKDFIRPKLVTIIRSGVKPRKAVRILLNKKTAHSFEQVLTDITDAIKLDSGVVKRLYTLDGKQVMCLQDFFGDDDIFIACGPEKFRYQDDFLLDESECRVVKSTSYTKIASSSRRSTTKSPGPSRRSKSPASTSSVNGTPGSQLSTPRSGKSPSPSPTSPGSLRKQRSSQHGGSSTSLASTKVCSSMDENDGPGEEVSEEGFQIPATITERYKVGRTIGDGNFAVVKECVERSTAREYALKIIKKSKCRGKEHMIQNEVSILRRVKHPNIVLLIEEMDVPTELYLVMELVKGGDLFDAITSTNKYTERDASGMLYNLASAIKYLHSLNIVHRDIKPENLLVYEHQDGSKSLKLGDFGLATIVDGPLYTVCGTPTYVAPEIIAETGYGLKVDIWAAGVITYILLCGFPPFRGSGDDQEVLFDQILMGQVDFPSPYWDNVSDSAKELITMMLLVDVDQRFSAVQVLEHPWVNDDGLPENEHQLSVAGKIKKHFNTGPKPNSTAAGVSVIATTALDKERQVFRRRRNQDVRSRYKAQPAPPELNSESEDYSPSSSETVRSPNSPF
# Outline: as §1
# MRCKβ(h) = molecular target: T4, MRCKβ(h) (Homo sapiens, UniProt Q9Y5S2)
# T4 construct: gene CDC42BPB
# Outline: as §1
# CK1α(h) = molecular target: T5, CK1α(h) (Homo sapiens, UniProt P48729)
# T5 construct: gene CSNK1A1
# T5 sequence (P48729 whole entry): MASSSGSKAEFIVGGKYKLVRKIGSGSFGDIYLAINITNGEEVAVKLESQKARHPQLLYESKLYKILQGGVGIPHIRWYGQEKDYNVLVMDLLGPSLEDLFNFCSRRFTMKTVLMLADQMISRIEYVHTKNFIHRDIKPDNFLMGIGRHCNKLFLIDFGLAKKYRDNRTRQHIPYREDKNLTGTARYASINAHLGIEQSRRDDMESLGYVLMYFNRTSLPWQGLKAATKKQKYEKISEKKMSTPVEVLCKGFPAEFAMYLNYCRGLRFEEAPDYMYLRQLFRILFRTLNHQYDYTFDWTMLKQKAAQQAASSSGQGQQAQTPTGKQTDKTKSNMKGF
# Outline: as §1
# CDK7/cyclinH/MAT1(h) = CDK7/cyclinH/MAT1(h) (Homo sapiens, UniProt P50613)
# CDK7/cyclinH/MAT1(h), sequence (P50613 whole entry): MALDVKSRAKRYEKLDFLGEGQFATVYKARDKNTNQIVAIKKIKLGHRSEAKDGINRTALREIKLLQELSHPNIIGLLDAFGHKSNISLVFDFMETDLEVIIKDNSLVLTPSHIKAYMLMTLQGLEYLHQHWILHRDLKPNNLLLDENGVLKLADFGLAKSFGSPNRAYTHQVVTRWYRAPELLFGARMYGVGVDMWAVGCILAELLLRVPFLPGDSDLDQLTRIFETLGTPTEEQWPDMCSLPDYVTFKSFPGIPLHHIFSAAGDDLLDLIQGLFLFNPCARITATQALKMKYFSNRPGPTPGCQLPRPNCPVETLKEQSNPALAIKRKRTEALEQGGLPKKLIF
# CDK7/cyclinH/MAT1(h), sequence (P51946 whole entry partner): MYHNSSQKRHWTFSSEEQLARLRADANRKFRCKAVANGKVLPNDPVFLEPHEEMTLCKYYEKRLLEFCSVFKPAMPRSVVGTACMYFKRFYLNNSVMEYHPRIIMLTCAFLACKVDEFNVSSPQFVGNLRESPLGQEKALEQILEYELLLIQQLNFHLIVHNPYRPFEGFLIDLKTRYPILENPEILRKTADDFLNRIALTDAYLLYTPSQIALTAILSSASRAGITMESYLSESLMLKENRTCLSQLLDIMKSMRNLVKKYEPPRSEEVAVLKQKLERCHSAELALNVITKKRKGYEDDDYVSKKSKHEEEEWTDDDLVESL
# CDK7/cyclinH/MAT1(h), sequence (P51948 whole entry partner): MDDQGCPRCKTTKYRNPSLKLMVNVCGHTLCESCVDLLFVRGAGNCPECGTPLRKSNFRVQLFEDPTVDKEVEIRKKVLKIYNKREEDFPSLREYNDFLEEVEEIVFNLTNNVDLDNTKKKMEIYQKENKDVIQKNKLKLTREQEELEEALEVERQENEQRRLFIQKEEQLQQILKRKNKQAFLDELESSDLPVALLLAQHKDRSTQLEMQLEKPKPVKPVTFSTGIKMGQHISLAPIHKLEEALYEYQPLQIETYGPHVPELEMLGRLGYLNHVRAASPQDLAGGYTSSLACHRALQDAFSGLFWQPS
# Outline: as §1
# TTBK2(h) = TTBK2(h) (Homo sapiens, UniProt Q6IQ55)
# Outline: as §1
# DDR1(h) = DDR1(h) (Homo sapiens, UniProt Q08345)
# Outline: as §1
# Hck(h) activated = Hck(h) activated (Homo sapiens, UniProt P08631)
# Outline: as §1
# CLK2(h) = CLK2(h) (Homo sapiens, UniProt P49760)
# Outline: as §1
# [1] = molecular target: T6, PI3 Kinase (p110a/p85a)(h) (Homo sapiens, UniProt P42336)
# T6 construct: gene PIK3CA
# Outline: as §1
# [2] = molecular target: T7, PI3 Kinase (p110a(E545K)/p85a)(m) (Mus musculus, UniProt P42337, E545K)
# T7 construct: gene Pik3ca
# Outline: as §1
# CDK12/cyclinK(h) = CDK12/cyclinK(h) (Homo sapiens, UniProt Q9NYV4)
# CDK12/cyclinK(h), sequence (Q9NYV4 whole entry): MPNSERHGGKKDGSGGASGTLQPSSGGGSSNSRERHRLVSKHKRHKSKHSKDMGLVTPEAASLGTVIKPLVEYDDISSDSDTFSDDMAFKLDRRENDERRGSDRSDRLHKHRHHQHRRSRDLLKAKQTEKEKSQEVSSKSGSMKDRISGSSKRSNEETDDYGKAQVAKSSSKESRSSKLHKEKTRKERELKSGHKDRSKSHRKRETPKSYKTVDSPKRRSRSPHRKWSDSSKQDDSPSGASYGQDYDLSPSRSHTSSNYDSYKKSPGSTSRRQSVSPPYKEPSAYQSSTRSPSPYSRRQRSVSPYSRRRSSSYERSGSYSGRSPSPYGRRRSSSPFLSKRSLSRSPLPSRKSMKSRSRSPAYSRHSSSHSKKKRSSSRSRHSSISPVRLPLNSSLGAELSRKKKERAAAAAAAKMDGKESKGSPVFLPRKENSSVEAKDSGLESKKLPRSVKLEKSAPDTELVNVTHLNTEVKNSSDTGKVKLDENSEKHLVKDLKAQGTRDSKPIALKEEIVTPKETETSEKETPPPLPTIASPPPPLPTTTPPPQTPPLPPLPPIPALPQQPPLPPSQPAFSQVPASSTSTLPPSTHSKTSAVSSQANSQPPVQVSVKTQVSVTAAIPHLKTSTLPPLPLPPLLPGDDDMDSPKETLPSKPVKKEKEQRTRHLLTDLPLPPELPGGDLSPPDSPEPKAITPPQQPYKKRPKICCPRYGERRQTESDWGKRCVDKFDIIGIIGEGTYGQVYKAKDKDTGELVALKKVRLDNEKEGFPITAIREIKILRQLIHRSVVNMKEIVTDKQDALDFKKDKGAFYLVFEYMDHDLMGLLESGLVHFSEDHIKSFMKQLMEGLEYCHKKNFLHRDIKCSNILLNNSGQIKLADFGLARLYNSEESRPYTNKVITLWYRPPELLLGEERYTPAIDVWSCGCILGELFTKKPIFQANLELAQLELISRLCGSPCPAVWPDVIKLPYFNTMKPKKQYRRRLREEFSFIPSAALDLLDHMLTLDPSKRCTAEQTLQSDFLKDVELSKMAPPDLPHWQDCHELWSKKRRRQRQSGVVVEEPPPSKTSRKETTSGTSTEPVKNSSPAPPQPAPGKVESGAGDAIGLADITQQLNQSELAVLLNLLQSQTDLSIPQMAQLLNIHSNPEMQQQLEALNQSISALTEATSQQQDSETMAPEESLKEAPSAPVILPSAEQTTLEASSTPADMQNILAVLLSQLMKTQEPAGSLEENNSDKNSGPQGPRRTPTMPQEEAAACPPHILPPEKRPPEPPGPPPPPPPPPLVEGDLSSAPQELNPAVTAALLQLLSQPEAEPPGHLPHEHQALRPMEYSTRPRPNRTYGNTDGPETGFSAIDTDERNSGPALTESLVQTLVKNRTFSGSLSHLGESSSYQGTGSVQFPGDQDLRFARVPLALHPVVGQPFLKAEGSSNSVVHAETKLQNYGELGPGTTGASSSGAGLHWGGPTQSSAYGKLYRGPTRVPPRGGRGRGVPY
# CDK12/cyclinK(h), sequence (O75909 whole entry partner): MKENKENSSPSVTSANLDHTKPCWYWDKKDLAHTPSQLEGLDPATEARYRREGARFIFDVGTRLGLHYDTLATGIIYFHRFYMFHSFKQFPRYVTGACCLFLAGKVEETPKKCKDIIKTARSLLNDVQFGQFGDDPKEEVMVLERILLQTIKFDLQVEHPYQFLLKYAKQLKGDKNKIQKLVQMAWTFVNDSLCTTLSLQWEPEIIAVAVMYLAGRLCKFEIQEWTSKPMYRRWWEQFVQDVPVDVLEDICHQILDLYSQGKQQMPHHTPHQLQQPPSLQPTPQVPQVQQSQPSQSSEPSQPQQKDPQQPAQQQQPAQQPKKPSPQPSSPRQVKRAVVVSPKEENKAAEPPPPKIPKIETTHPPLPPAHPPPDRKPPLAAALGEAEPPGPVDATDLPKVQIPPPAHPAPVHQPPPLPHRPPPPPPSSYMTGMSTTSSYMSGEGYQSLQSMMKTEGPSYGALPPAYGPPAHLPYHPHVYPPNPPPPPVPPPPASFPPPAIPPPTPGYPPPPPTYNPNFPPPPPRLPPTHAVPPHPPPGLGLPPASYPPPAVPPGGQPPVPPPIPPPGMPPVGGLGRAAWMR
# Outline: as §1
# PKCβI(h) = molecular target: T8, PKCβI(h) (Homo sapiens, UniProt P05771)
# T8 construct: gene PRKCB; isoform beta I
# Outline: as §1
# PASK(h) = PASK(h) (Homo sapiens, UniProt Q96RG2)
# PASK(h), sequence (Q96RG2 whole entry): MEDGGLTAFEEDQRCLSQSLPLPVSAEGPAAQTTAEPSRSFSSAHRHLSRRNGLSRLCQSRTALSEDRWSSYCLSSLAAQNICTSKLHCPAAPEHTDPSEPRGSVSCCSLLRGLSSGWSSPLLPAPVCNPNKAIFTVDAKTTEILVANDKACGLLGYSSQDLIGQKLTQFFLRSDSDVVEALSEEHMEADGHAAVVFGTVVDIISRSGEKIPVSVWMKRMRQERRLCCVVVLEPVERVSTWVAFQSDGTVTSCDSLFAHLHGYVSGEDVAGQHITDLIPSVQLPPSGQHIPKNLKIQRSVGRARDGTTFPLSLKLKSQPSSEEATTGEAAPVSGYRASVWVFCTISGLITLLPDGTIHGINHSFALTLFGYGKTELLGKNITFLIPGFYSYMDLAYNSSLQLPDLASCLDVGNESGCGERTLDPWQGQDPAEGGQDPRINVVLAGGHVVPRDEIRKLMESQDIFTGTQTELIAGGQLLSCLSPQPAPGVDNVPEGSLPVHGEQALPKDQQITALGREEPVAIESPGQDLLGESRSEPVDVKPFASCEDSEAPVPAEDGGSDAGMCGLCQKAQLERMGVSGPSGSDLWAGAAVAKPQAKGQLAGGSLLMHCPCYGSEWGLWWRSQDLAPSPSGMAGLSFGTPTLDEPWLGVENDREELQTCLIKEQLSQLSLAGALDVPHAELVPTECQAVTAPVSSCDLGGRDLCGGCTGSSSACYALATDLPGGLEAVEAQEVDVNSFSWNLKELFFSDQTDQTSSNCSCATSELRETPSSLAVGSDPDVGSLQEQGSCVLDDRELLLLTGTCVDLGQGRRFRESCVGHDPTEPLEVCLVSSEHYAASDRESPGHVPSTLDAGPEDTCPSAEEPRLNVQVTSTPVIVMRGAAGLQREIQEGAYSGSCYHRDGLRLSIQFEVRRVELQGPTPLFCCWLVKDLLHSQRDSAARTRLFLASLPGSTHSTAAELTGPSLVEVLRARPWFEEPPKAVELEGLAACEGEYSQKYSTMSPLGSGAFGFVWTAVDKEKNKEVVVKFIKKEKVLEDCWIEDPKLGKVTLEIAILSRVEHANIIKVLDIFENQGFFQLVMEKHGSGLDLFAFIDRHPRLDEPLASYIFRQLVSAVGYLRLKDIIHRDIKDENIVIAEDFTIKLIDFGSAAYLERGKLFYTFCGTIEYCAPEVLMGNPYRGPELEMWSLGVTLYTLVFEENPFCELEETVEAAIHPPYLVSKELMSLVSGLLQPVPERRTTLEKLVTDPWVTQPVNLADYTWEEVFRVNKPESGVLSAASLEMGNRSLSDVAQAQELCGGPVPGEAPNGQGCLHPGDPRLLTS
# Outline: as §1
# [3] = read-out: Residual activity (%) 5at
# [4] = read-out: Residual activity (%) 5as
# [5] = read-out: Residual activity (%) 5ay
# [6] = read-out: Residual activity (%) Spautin-1 5aa
smiles,measurement,setting,value
"Fc1ccc2ncnc(NCCc3ccc(Cl)cc3)c2c1 [5at, N-[2-(4-Chlorophenyl)Ethyl]-6-Fluoro-4-Quinazolinamine]",remaining activity at 10 µM,CRIK(h); [3],89%
same,remaining activity at 10 µM,cKit(V654A)(h); [3],85%
same,remaining activity at 10 µM,DCAMKL1(h); [3],89%
same,remaining activity at 10 µM,MRCKβ(h); [3],103%
same,remaining activity at 10 µM,CK1α(h); [3],89%
same,remaining activity at 10 µM,CDK7/cyclinH/MAT1(h); [3],59%
same,remaining activity at 10 µM,TTBK2(h); [3],111%
same,remaining activity at 10 µM,DDR1(h); [3],39%
same,remaining activity at 10 µM,Hck(h) activated; [3],108%
same,remaining activity at 10 µM,CLK2(h); [3],60%
same,remaining activity at 10 µM,[1]; [3],94%
same,remaining activity at 10 µM,[2]; [3],91%
same,remaining activity at 10 µM,CDK12/cyclinK(h); [3],93%
same,remaining activity at 10 µM,PKCβI(h); [3],93%
same,remaining activity at 10 µM,PASK(h); [3],30%
"Fc1ccc(CCNc2ncnc3ccc(F)cc23)cc1 [5as, 6-Fluoro-N-[2-(4-Fluorophenyl)Ethyl]-4-Quinazolinamine]",remaining activity at 10 µM,CRIK(h); [4],101%
same,remaining activity at 10 µM,cKit(V654A)(h); [4],85%
same,remaining activity at 10 µM,DCAMKL1(h); [4],82%
same,remaining activity at 10 µM,MRCKβ(h); [4],84%
same,remaining activity at 10 µM,CK1α(h); [4],98%
same,remaining activity at 10 µM,CDK7/cyclinH/MAT1(h); [4],49%
same,remaining activity at 10 µM,TTBK2(h); [4],107%
same,remaining activity at 10 µM,DDR1(h); [4],29%
same,remaining activity at 10 µM,Hck(h) activated; [4],85%
same,remaining activity at 10 µM,CLK2(h); [4],53%
same,remaining activity at 10 µM,[1]; [4],103%
same,remaining activity at 10 µM,[2]; [4],91%
same,remaining activity at 10 µM,CDK12/cyclinK(h); [4],72%
same,remaining activity at 10 µM,PKCβI(h); [4],100%
same,remaining activity at 10 µM,PASK(h); [4],44%
"COc1ccc2ncnc(Nc3cccc(F)c3)c2c1 [5ay, N-(3-Fluorophenyl)-6-Methoxy-4-Quinazolinamine]",remaining activity at 10 µM,CRIK(h); [5],76%
same,remaining activity at 10 µM,cKit(V654A)(h); [5],92%
same,remaining activity at 10 µM,DCAMKL1(h); [5],84%
same,remaining activity at 10 µM,MRCKβ(h); [5],79%
same,remaining activity at 10 µM,CK1α(h); [5],100%
same,remaining activity at 10 µM,CDK7/cyclinH/MAT1(h); [5],58%
same,remaining activity at 10 µM,TTBK2(h); [5],114%
same,remaining activity at 10 µM,DDR1(h); [5],7%
same,remaining activity at 10 µM,Hck(h) activated; [5],46%
same,remaining activity at 10 µM,CLK2(h); [5],43%
same,remaining activity at 10 µM,[1]; [5],101%
same,remaining activity at 10 µM,[2]; [5],91%
same,remaining activity at 10 µM,CDK12/cyclinK(h); [5],69%
same,remaining activity at 10 µM,PKCβI(h); [5],86%
same,remaining activity at 10 µM,PASK(h); [5],65%
"Fc1ccc(CNc2ncnc3ccc(F)cc23)cc1 [5aa, 6-Fluoro-N-(4-fluorobenzyl)-4-Quinazolinamine]",remaining activity at 10 µM,CRIK(h); [6],90%
same,remaining activity at 10 µM,cKit(V654A)(h); [6],112%
same,remaining activity at 10 µM,DCAMKL1(h); [6],95%
same,remaining activity at 10 µM,MRCKβ(h); [6],80%
same,remaining activity at 10 µM,CK1α(h); [6],76%
same,remaining activity at 10 µM,CDK7/cyclinH/MAT1(h); [6],62%
same,remaining activity at 10 µM,TTBK2(h); [6],117%
same,remaining activity at 10 µM,DDR1(h); [6],65%
same,remaining activity at 10 µM,Hck(h) activated; [6],85%
same,remaining activity at 10 µM,CLK2(h); [6],47%
same,remaining activity at 10 µM,[1]; [6],100%
same,remaining activity at 10 µM,[2]; [6],94%
same,remaining activity at 10 µM,CDK12/cyclinK(h); [6],84%
same,remaining activity at 10 µM,PKCβI(h); [6],95%
same,remaining activity at 10 µM,PASK(h); [6],66%
